Measurements: patent publication US20250215029A1 (Recludix Pharma, Inc., priority 2022, published 2025)
pIC50: −log10 of the molar value.

Biological target: T1, pY641-STAT6 in PBMC (Homo sapiens, UniProt P42226)
T1 construct: Cryopreserved Peripheral Blood Mononuclear Cells (PBMC) are from AllCells; host or cells: cryopreserved PBMC
T1 sequence (P42226 1-847): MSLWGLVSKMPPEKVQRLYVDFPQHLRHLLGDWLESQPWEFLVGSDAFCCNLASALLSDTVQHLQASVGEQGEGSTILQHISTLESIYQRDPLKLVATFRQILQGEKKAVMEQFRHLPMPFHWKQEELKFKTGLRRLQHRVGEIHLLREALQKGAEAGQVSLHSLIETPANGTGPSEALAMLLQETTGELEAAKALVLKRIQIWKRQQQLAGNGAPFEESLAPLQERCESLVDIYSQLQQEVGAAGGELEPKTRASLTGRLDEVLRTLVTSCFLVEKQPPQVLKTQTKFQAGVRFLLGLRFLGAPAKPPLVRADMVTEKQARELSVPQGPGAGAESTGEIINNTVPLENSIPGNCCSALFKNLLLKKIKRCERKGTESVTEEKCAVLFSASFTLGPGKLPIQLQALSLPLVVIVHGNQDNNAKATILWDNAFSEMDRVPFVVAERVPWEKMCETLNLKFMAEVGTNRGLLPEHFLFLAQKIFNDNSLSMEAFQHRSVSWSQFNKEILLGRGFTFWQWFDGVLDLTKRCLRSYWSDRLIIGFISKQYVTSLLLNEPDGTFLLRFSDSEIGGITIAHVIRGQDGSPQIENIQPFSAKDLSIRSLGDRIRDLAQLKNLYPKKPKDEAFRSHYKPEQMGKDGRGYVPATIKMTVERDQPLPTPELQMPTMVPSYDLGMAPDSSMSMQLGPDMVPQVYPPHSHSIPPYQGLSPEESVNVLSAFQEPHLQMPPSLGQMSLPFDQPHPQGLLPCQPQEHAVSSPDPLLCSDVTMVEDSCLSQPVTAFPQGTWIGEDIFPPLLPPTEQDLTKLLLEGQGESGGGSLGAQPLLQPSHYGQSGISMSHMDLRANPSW
Assay: MSD-pSTAT-PBMC Assay (pSTAT6, IL-4 stimulated)
Type: cell-based
Conditions: STAT6, PBMC, compound 3 hrs, then 1 ng/mL IL-4 for 10 min; Table 115
Summary of the method: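 Inhibition of cytokine-induced STAT phosphorylation was measured in recovered human PBMC after 3 hrs compound exposure and a 10 min IL-4 (1 ng/mL) or IL-6 (10 ng/mL) challenge. MSD detection of pY641-STAT6 or pY705-STAT3 yielded IC50 values.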

CCCOC(=O)[C@H](C)NP(=O)(Oc1ccccc1)C(F)c1ccc2sc(C(=O)N[C@H]3CCC[C@H]4CC[C@@H](C(=O)N5CC(c6cccnc6)CC56CC6)N4C3=O)cc2c1 (stereo partly drawn) [Compound 456, propyl ((fluoro(2-(((3S,6S,9aS)-5-oxo-3-(6-(pyridin-3-yl)-4-azaspiro[2.4]heptane-4-carbonyl)octahydro-1H-pyrrolo[1,2-a]azepin-6-yl)carbamoyl)benzo [b]thiophen-5-yl)methyl)(phenoxy)phosphoryl)-L-alaninate]
pIC50: > 7.00

CCCOC(=O)[C@H](C)NP(=O)(Oc1ccccc1)C(F)c1ccc2sc(C(=O)N[C@H]3CCCC[C@H]4CC[C@@H](C(=O)N5CCC(c6cnn(C)c(=O)c6)C5)N4C3=O)cc2c1 (stereo partly drawn) [Compound 465, propyl ((fluoro(2-(((3S,6S,10aS)-3-(3-(1-methyl-6-oxo-1,6-dihydropyridazin-4-yl)pyrrolidine-1-carbonyl)-5-oxodecahydropyrrolo [1,2-a]azocin-6-yl)carbamoyl)benzo [b]thiophen-5-yl)methyl)(phenoxy)phosphoryl)-L-alaninate]
pIC50: < 5.52

CCCOC(=O)[C@H](C)NP(=O)(Oc1ccccc1)C(F)c1ccc2sc(C(=O)N[C@H]3CCCC[C@H]4CC[C@@H](C(=O)N5CCC(O)(c6ccn(C)c(=O)c6)C5)N4C3=O)cc2c1 (stereo partly drawn) [Compound 466, propyl ((fluoro(2-(((3S,6S,10aS)-3-(3-hydroxy-3-(1-methyl-2-oxo-1,2-dihydropyridin-4-yl)pyrrolidine-1-carbonyl)-5-oxodecahydropyrrolo [1,2-a]azocin-6-yl)carbamoyl)benzo [b]thiophen-5-yl)methyl)(phenoxy)phosphoryl)-L-alaninate]
pIC50: < 5.52

CCCOC(=O)[C@H](C)NP(=O)(Oc1ccccc1)C(F)c1ccc2sc(C(=O)N[C@H]3CCCC[C@H]4CC[C@@H](C(=O)N5C(=O)N(c6cccnc6)CC56CC6)N4C3=O)cc2c1 (stereo partly drawn) [Compound 467, propyl ((fluoro(2-(((3S,6S,10aS)-5-oxo-3-(5-oxo-6-(pyridin-3-yl)-4,6-diazaspiro[2.4]heptane-4-carbonyl)decahydropyrrolo[1,2-a]azocin-6-yl)carbamoyl)benzo [b]thiophen-5-yl)methyl)(phenoxy)phosphoryl)-L-alaninate]
pIC50: < 5.52

CCCOC(=O)[C@H](C)NP(=O)(Oc1ccccc1)[C@@H](F)c1ccc2sc(C(=O)N[C@H]3CCCC[C@H]4CC[C@@H](C(=O)N5C(=O)N(c6cccnc6)C(=O)C56CC6)N4C3=O)cc2c1 (stereo partly drawn) [Compound 468, propyl (((R)-(2-(((3S,6S,10aS)-3-(5,7-dioxo-6-(pyridin-3-yl)-4,6-diazaspiro[2.4]heptane-4-carbonyl)-5-oxodecahydropyrrolo [1,2-a]azocin-6-yl)carbamoyl)benzo [b]thiophen-5-yl)fluoromethyl) (phenoxy)phosphoryl)-L-alaninate]
pIC50: > 7.00

CCCOC(=O)[C@H](C)NP(=O)(Oc1ccccc1)[C@@H](F)c1ccc2sc(C(=O)N[C@H]3CCC[C@H]4CC[C@@H](C(=O)N5C(=O)N(c6cccnc6)C(=O)C56CC6)N4C3=O)cc2c1 (stereo partly drawn) [Compound 469, propyl (((R)-(2-(((3S,6S,9aS)-3-(5,7-dioxo-6-(pyridin-3-yl)-4,6-diazaspiro[2.4]heptane-4-carbonyl)-5-oxooctahydro-1H-pyrrolo[1,2-a]azepin-6-yl)carbamoyl)benzo [b]thiophen-5-yl)fluoromethyl) (phenoxy)phosphoryl)-L-alaninate]
pIC50: 6.00 to 7.00

CCCOC(=O)[C@H](C)NP(=O)(Oc1ccccc1)[C@@H](F)c1ccc2sc(C(=O)N[C@H]3CC[C@@H](C)C[C@H]4CC[C@@H](C(=O)N5C[C@@H](c6cccnc6)CC56CC6)N4C3=O)cc2c1 (stereo partly drawn) [Compound 470, propyl (((R)-fluoro(2-(((3S,6S,9R,10aR)-9-methyl-5-oxo-3-((R)-6-(pyridin-3-yl)-4-azaspiro[2.4]heptane-4-carbonyl)decahydropyrrolo[1,2-a]azocin-6-yl)carbamoyl)benzo [b]thiophen-5-yl)methyl)(phenoxy)phosphoryl)-L-alaninate]
pIC50: > 7.00

CCC(CC)COC(=O)[C@H](C)NP(=O)(Oc1ccccc1)[C@@H](F)c1ccc2sc(C(=O)N[C@H]3CCCC[C@H]4CC[C@@H](C(=O)N5C[C@@H](c6cccnc6)CC56CC6)N4C3=O)cc2c1 (stereo partly drawn) [Compound 471, 2-ethylbutyl (((R)-fluoro(2-(((3S,6S,10aS)-5-oxo-3-((R)-6-(pyridin-3-yl)-4-azaspiro[2.4]heptane-4-carbonyl)decahydropyrrolo[1,2-a]azocin-6-yl)carbamoyl)benzo [b]thiophen-5-yl)methyl)(phenoxy)phosphoryl)-L-alaninate]
pIC50: > 7.00

C[C@H](NP(=O)(Oc1ccccc1)[C@@H](F)c1ccc2sc(C(=O)N[C@H]3CCCC[C@H]4CC[C@@H](C(=O)N5C[C@@H](c6cccnc6)CC56CC6)N4C3=O)cc2c1)C(=O)OCc1ccccc1 (stereo partly drawn) [Compound 472, benzyl (((R)-fluoro(2-(((3S,6S,10aS)-5-oxo-3-((R)-6-(pyridin-3-yl)-4-azaspiro[2.4]heptane-4-carbonyl)decahydropyrrolo[1,2-a]azocin-6-yl)carbamoyl)benzo [b]thiophen-5-yl)methyl)(phenoxy)phosphoryl)-L-alaninate]
pIC50: > 7.00

CCCOC(=O)[C@H](C)NP(=O)(Oc1ccccc1)C(F)c1ccc2sc(C(=O)N[C@H]3CCCC[C@H]4CC[C@@H](C(=O)N5C(=O)N(c6cncc(F)c6)C(=O)C56CC6)N4C3=O)cc2c1 (stereo partly drawn) [Compound 473, propyl ((fluoro(2-(((3S,6S,10aS)-3-(6-(5-fluoropyridin-3-yl)-5,7-dioxo-4,6-diazaspiro[2.4]heptane-4-carbonyl)-5-oxodecahydropyrrolo [1,2-a]azocin-6-yl)carbamoyl)benzo [b]thiophen-5-yl)methyl)(phenoxy)phosphoryl)-L-alaninate]
pIC50: < 5.52

CC(C)OC(=O)[C@H](C)NP(=O)(Oc1ccccc1)[C@@H](F)c1ccc2sc(C(=O)N[C@H]3CCCC[C@H]4CC[C@@H](C(=O)N5C[C@@H](c6cccnc6)CC56CC6)N4C3=O)cc2c1 (stereo partly drawn) [Compound 474, isopropyl (((R)-fluoro(2-(((3S,6S,10aS)-5-oxo-3-((R)-6-(pyridin-3-yl)-4-azaspiro[2.4]heptane-4-carbonyl)decahydropyrrolo[1,2-a]azocin-6-yl)carbamoyl)benzo [b]thiophen-5-yl)methyl)(phenoxy)phosphoryl)-L-alaninate]
pIC50: > 7.00

CC(C)OC(=O)[C@H](C)NP(=O)(Cc1ccc2sc(C(=O)N[C@H]3CCCC[C@H]4CC[C@@H](C(=O)N5C[C@@H](c6cccnc6)CC56CC6)N4C3=O)cc2c1)Oc1ccccc1 (stereo partly drawn) [Compound 475, isopropyl (((2-(((3S,6S,10aS)-5-oxo-3-((R)-6-(pyridin-3-yl)-4-azaspiro[2.4]heptane-4-carbonyl)decahydropyrrolo[1,2-a]azocin-6-yl)carbamoyl)benzo [b]thiophen-5-yl)methyl)(phenoxy)phosphoryl)-L-alaninate]
pIC50: 6.00 to 7.00

CCCOC(=O)[C@H](C)NP(=O)(Cc1ccc2sc(C(=O)N[C@H]3CCCC[C@H]4CC[C@@H](C(=O)N5C[C@@H](c6cccnc6)CC56CC6)N4C3=O)cc2c1)Oc1ccccc1 (stereo partly drawn) [Compound 476, propyl (((2-(((3S,6S,10aS)-5-oxo-3-((R)-6-(pyridin-3-yl)-4-azaspiro[2.4]heptane-4-carbonyl)decahydropyrrolo[1,2-a]azocin-6-yl)carbamoyl)benzo [b]thiophen-5-yl)methyl)(phenoxy)phosphoryl)-L-alaninate]
pIC50: > 7.00
